According to ChEMBL document CHEMBL1201862, “PubChem BioAssay data set” (2004):
Active and inactive are the calls of the source.

What was measured:
[1] = molecular target: T1, Methionyl-tRNA synthetase, putative (Trypanosoma brucei brucei, UniProt Q38C91); format: functional, Trypanosoma brucei brucei strain 927/4 GUTat10.1
T1 sequence (Q38C91 whole entry): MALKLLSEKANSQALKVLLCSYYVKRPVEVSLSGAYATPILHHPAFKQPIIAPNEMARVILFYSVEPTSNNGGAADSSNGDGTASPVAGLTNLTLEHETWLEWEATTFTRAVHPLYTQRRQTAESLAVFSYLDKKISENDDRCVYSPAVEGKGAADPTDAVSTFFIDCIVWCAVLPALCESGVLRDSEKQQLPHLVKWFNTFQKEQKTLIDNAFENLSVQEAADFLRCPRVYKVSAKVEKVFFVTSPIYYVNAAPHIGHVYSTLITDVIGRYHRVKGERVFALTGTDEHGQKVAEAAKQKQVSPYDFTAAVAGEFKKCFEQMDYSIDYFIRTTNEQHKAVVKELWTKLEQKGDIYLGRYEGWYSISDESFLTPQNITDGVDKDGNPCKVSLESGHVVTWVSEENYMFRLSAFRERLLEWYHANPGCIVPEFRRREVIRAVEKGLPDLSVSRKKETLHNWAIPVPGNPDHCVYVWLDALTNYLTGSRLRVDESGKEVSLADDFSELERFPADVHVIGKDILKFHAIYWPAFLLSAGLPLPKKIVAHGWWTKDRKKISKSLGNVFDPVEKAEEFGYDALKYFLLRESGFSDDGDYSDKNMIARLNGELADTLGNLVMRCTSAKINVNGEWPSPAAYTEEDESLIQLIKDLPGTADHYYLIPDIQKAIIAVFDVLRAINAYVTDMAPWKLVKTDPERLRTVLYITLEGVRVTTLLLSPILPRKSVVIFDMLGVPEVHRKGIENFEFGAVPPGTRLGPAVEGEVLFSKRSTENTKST

[2] = molecular target: T1, Methionyl-tRNA synthetase, putative; format: functional, Trypanosoma brucei brucei strain 927/4 GUTat10.1; remark: listed apart in the source
[3] = Counterscreen for inhibitors of Trypanosoma brucei methionyl tRNA synthetase (MetRS): Luminescence-based cell-based high throughput dose response assay to identify compounds that are cytotoxic to Jurkat human T lymphocyte cells.; format: functional; conditions: Homo sapiens, Jurkat
[4] = viability loss in HeLa cells – cytotoxicity control for MgcRacGAP inhibitor project, dose response (AID 624300); format: functional
[5] = molecular target: Nonstructural protein 1 (Influenza A virus, UniProt Q194T2); format: functional, Influenza A virus (A/California/07/2009(H1N1))
Nonstructural protein 1, sequence (Q194T2 whole entry): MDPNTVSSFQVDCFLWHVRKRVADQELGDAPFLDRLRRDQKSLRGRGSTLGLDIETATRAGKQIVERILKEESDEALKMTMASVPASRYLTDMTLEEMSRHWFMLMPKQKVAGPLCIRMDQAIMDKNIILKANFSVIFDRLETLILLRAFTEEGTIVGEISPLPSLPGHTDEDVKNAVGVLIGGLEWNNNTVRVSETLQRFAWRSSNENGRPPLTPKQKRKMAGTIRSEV

[6] = molecular target: T2, Rac GTPase-activating protein 1 (Homo sapiens, UniProt Q9H0H5); assay: blockers of MgcRacGAP-driven Rac1 GTP hydrolysis – biochemical, ADP Hunter fluorescence, primary and confirmatory, confirmation (AID 624330); format: functional
T2 sequence (Q9H0H5 whole entry): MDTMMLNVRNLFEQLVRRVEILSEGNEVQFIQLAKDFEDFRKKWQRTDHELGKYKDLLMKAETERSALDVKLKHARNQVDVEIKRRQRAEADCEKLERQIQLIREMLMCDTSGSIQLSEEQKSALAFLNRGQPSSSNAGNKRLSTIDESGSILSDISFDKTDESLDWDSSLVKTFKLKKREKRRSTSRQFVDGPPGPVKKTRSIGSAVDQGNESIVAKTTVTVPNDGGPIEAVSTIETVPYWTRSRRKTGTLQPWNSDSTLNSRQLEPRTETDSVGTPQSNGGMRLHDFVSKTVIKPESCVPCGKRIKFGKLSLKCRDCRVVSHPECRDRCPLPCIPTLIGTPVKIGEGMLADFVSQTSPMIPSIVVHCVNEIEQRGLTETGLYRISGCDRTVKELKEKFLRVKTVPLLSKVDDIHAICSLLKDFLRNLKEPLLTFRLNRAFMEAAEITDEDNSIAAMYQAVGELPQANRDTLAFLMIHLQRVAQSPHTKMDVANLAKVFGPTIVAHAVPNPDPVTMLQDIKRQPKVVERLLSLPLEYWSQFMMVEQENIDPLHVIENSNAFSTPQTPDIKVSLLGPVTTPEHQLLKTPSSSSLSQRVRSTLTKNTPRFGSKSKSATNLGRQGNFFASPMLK

[7] = molecular target: ADP-ribosylation factor GTPase-activating protein 1 (Rattus norvegicus, UniProt Q62848); assay: Fluorescence polarization-based biochemical high throughput dose response screening assay to identify inhibitors of ADP-ribosylation factor GTPase activating protein 1 (ARFGAP1).; format: functional
ADP-ribosylation factor GTPase-activating protein 1, sequence (Q62848 whole entry): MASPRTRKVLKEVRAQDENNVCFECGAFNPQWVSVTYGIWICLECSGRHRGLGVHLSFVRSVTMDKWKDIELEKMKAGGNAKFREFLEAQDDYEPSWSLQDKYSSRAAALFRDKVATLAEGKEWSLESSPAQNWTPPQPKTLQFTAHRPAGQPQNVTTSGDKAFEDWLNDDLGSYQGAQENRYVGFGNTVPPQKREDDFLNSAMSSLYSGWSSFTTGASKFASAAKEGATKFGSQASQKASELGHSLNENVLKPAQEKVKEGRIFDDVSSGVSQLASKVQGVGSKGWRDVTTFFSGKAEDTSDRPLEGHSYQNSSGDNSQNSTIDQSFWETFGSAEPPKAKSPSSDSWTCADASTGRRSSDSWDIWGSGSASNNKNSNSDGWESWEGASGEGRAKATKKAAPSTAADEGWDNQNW

[8] = molecular target: T3, Low molecular weight phosphotyrosine protein phosphatase (Homo sapiens, UniProt P24666); format: functional; conditions: read-out: IC50_Mean
T3 sequence (P24666 whole entry): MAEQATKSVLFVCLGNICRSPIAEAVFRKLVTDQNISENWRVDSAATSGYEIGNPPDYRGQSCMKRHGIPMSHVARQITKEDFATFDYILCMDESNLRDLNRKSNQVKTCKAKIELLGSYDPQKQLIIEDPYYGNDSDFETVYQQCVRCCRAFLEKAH

[9] = molecular target: T4, Tyrosine-protein phosphatase non-receptor type 11 (Homo sapiens, UniProt Q06124); assay: PTPN11 enzyme inhibitors – biochemical, selectivity assay for STEP inhibitor project, dose response (AID 602367); format: functional; conditions: read-out: IC50_Mean
T4 sequence (Q06124 whole entry): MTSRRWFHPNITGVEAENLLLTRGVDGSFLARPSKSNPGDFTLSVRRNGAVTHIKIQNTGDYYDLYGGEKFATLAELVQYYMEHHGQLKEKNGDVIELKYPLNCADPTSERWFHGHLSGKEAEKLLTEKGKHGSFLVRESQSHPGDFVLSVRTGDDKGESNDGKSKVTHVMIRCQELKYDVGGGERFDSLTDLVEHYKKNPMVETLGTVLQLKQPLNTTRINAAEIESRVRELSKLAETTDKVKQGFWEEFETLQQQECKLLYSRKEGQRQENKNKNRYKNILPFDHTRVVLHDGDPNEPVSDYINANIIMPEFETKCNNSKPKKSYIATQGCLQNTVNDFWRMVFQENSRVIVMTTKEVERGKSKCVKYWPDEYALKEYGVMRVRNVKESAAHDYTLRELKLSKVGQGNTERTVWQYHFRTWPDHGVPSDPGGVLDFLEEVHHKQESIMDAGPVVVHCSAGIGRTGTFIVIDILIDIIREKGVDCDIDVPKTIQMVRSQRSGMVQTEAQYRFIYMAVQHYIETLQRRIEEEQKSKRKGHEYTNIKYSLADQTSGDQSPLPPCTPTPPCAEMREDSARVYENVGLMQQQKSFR

[10] = molecular target: Tyrosine-protein phosphatase non-receptor type 22 (Homo sapiens, UniProt Q9Y2R2); assay: lymphoid phosphatase LYP inhibitors – biochemical, selectivity assay for STEP inhibitor project, dose response (AID 624241); format: functional
Tyrosine-protein phosphatase non-receptor type 22, sequence (Q9Y2R2 whole entry): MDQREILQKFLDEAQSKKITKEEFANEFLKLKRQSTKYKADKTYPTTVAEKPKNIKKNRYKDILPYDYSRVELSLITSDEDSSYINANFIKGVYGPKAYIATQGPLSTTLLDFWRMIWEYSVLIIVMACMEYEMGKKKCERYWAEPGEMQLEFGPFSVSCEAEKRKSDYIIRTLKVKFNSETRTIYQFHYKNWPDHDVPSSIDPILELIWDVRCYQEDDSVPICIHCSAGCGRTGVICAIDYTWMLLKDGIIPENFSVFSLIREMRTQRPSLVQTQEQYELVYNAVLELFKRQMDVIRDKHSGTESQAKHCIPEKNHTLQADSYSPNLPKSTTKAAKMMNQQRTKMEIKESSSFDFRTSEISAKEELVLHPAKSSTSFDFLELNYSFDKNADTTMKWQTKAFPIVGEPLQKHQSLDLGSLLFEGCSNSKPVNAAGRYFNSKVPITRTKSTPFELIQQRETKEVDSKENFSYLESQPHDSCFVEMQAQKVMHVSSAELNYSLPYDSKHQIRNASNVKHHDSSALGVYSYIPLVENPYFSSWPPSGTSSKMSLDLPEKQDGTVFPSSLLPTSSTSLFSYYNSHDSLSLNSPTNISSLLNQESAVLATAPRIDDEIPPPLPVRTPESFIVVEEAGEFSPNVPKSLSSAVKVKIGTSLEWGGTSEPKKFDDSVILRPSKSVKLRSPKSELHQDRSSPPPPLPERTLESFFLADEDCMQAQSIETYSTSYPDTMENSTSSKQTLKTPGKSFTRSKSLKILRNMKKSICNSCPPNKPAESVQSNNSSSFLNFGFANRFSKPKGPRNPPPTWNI

[11] = molecular target: Dual specificity protein phosphatase 3 (Homo sapiens, UniProt P51452); assay: VHR phosphatase inhibition, dose response, selectivity assay for STEP inhibitor project, biochemical (AID 602374); format: functional; conditions: read-out: IC50_Mean
Dual specificity protein phosphatase 3, sequence (P51452 whole entry): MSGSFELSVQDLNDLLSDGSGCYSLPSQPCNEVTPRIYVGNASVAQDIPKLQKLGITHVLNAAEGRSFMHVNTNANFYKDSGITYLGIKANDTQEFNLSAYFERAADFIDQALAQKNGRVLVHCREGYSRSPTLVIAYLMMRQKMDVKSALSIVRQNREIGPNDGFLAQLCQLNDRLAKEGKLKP

[12] = molecular target: T5, Tyrosine-protein phosphatase non-receptor type 5 (Homo sapiens, UniProt P54829); assay: PTPN5 enzyme inhibition – biochemical, fluorescence intensity, uHTS hits, confirmation (AID 602372); format: functional; conditions: read-out: IC50_Mean
T5 sequence (P54829 whole entry): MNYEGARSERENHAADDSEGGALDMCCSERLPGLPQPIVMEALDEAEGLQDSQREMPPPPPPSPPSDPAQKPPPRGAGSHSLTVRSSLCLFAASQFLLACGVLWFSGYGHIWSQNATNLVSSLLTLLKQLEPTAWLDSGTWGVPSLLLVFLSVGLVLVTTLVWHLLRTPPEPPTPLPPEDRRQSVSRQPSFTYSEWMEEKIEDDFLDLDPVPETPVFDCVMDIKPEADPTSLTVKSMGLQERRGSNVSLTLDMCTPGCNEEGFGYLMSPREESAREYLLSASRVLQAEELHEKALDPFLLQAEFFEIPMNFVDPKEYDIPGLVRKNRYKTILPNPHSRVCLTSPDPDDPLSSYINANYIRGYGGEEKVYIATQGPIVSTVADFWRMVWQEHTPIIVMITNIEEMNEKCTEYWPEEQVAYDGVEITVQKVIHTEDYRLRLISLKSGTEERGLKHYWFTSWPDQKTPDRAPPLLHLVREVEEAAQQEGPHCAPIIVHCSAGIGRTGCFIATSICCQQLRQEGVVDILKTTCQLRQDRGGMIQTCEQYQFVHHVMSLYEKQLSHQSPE

[13] = molecular target: G-protein coupled receptor 55 (Homo sapiens, UniProt Q9Y2T6); assay: inhibition of LPI-stimulated GPR55 beta-arrestin translocation – imaging, U2OS, beta-arrestin-GFP, LPI agonist, primary screen (AID 2013); format: functional;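 note: antagonist potency measured as reduced agonist-driven arrestin aggregation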
G-protein coupled receptor 55, sequence (Q9Y2T6 whole entry): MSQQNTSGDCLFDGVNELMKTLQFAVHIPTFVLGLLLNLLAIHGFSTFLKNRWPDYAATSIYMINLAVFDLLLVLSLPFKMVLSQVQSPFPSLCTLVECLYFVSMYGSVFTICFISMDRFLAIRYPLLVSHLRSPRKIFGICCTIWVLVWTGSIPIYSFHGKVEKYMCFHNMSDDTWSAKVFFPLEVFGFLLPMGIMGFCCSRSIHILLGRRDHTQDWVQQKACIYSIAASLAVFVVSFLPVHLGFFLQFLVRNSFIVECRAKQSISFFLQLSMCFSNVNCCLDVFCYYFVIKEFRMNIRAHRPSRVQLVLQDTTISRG

[14] = cells; format: functional
[15] = THP-1 cell cytotoxicity, dose response, cytotoxicity control for non-replicating M. tuberculosis project (AID 489025); format: functional
[16] = molecular target: T6, Protein RecA (Mycobacterium tuberculosis, UniProt P9WHJ3); assay: Fluorescence Cell-Free Homogeneous Dose Retest to Identify Inhibitors of RecA-Intein Splicing Activity. [Related pubchem assays (depositor defined):AID2097, AID2223, AID489010, AID492950]; format: functional
T6 sequence (P9WHJ3 whole entry): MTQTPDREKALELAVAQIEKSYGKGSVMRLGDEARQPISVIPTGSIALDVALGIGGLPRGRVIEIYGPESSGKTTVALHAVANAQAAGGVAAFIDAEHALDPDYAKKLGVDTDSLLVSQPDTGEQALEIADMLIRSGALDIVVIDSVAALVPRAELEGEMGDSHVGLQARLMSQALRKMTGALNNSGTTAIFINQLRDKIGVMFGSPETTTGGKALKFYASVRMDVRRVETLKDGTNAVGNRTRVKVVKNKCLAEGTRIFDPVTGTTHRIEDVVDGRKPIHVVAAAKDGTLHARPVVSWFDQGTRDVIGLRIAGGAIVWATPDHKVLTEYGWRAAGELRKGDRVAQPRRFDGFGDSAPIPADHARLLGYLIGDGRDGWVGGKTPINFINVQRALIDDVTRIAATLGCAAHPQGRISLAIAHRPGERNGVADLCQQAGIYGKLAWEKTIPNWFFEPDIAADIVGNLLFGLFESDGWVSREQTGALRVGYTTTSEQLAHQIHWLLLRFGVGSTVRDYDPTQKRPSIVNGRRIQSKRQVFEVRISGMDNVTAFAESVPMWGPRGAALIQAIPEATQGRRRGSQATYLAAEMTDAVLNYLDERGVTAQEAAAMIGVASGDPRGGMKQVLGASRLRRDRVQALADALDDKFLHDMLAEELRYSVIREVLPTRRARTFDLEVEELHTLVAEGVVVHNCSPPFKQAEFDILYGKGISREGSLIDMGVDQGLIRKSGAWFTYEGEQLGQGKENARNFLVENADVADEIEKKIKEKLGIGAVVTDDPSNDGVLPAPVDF

[17] = molecular target: T7, Replicative DNA helicase DnaB (Mycobacterium tuberculosis, UniProt P9WMR3); assay: DnaB intein splicing inhibitors, dose response, biochemical, cell-free fluorescence (AID 449749); format: functional
T7 sequence (P9WMR3 whole entry): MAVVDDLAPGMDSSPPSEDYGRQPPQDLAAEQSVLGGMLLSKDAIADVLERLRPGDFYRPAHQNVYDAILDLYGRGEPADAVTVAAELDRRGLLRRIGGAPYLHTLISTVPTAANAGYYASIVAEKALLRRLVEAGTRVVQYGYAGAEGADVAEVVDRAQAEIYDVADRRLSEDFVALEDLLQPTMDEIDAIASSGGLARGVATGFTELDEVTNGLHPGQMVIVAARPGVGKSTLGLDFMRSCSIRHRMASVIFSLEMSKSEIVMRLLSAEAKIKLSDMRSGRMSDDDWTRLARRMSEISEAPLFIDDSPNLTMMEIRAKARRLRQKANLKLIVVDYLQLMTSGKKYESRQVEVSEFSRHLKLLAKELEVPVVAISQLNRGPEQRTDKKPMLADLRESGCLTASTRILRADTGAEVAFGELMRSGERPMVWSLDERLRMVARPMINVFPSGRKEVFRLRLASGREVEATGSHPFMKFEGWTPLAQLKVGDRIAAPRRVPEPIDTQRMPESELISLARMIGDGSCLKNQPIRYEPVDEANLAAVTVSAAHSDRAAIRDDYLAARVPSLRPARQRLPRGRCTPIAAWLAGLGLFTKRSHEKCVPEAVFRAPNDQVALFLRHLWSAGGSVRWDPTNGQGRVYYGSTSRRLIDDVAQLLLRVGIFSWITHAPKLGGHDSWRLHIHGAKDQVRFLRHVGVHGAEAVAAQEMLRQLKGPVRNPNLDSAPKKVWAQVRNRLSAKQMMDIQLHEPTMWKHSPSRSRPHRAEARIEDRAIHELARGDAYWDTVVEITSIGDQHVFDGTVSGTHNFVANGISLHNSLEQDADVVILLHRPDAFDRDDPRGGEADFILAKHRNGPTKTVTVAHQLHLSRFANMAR

[18] = Fluorescence-based cell-based high throughput dose response assay for inhibitors of the interaction of nucleotide-binding oligomerization domain containing 2 (NOD2) and the receptor-interacting serine-threonine kinase 2 (RIPK2).; format: functional; conditions: Homo sapiens
[19] = Vero E6 cell cytotoxicity, dose response, cytotoxicity control for non-replicating M. tuberculosis project, secondary assay (AID 492998); format: functional, VeroE6; conditions: Vero C1008

## O=S(=O)(c1ccc2nc(SCc3ccc(Cl)cc3)[nH]c2c1)N1CCOCC1
[1]
  IC50: 30.8 µM (inactive)
[2]
  IC50: 32.3 µM (inactive)

## O=S(=O)(c1ccc2[nH]c(SCc3ccc(Cl)cc3)nc2c1)N1CCOCC1
[3]
  IC50: 16.9 µM (inactive)

## COc1ccc2c(c1)-c1c(ssc1=S)C(C)(C)N2
[4]
  CC50: 100 µM (active)
[5]
  IC50: 22.7 µM (active)
[6]
  IC50: 29.4 µM (active)

## Cc1cc(OCC(=O)Nc2cccnc2)c2c(C)c(C)c(=O)oc2c1
[7]
  IC50: 64.9 µM (inactive)

## NC(=S)NN=C1Cc2cccc3cccc1c23
[8]
  IC50: 4.94 µM (active)

## COc1ccccc1NS(=O)(=O)c1cc(NC(=S)NCCN2CCOCC2)ccc1N1CCOCC1
[9]
  IC50: 0.891 µM (active)
[10]
  IC50: 31.4 µM (inactive)
[11]
  IC50: 0.498 µM (active)
[12]
  IC50: 8.37 µM (active)
[13]
  IC50: 3.2 µM (active)

## Cc1noc2ncnc(Sc3ccccc3Cl)c12
[14]
  IC50: 9.99 µM (active)
[15]
  CC50: 20.2 µM (active)
[16]
  EC50: 4.04 µM (active)
[17]
  AC50: 12.2 µM (active)
[18]
  IC50: 4.4 µM (active)
[19]
  CC50: 16.9 µM (active)
